Reference: US12139499B2, “Heteroaryl compounds for treating Huntington's disease” (PTC THERAPEUTICS, INC., priority 2018, dated 2024)

The compounds below were run on Endogenous Huntingtin Protein (assay: Endogenous Huntingtin Protein Assay (ELISA-based MSD electrochemiluminescence)). Conditions: Table 1.
Format: cell-based
Outline: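 Huntingtin was captured overnight at 4 °C on plates coated with 1 μg/mL MW1 (polyQ-expanded) or MAB2166 antibody and BSA-blocked. Detection used a rabbit monoclonal and then a SULFO-TAG goat anti-rabbit antibody (0.25 μg/mL, 1 h each, room temperature). Signal was read by electrochemiluminescence.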
Work on `CN(c1nc2cnc(-c3cc(F)c4nn(C)cc4c3)cc2s1)C1CC2CCCC(C1)N2` (centres unmarked) [Compound 253, N-(9-azabicyclo[3.3.1]non-3-yl)-6-(7-fluoro-2-methyl-2H-indazol-5-yl)-N-methyl[1,3]thiazolo[4,5-c]pyridin-2-amine] yielded an IC50 of at most 100 nM. For `Cc1cn2cc(-c3ncc4nc(N(C)C5CC6(C)CC[C@](C)(C5)N6)sc4n3)cc(C#N)c2n1` (stereo partly drawn) [Compound 255, 6-(2-{[(1R)-1,5-dimethyl-8-azabicyclo[3.2.1]oct-3-yl](methyl)amino}[1,3]thiazolo[5,4-d]pyrimidin-5-yl)-2-methylimidazo[1,2-a]pyridine-8-carbonitrile], the IC50 was at most 100 nM. For `Cc1cn2cc(-c3ncc4nc(N(C)C5C[C@H]6CCC[C@@H](C5)N6)sc4n3)cc(C#N)c2n1` (stereo partly drawn) [Compound 256, 6-{2-[(1R,5S)-9-azabicyclo[3.3.1]non-3-yl(methyl)amino][1,3]thiazolo[5,4-d]pyrimidin-5-yl}-2-methylimidazo[1,2-a]pyridine-8-carbonitrile], the IC50 was at most 100 nM. `Cc1cn2cc(-c3ncc4nc(N(C)C5C[C@H]6CCC[C@@H](C5)N6)sc4n3)cc(F)c2n1` (stereo partly drawn) [Compound 257, N-[(1R,5S)-9-azabicyclo[3.3.1]non-3-yl]-5-(8-fluoro-2-methylimidazo[1,2-a]pyridin-6-yl)-N-methyl[1,3]thiazolo[5,4-d]pyrimidin-2-amine] was tested, and the IC50 was at most 100 nM. In the case of `Cc1cn2nc(-c3cc(F)c4nc(N(C)[C@H]5CCN[C@@H](C)C5)sc4c3)ccc2n1` [Compound 258, 4-fluoro-N-methyl-6-(2-methylimidazo[1,2-b]pyridazin-6-yl)-N-[(2S,4S)-2-methylpiperidin-4-yl]-1,3-benzothiazol-2-amine], the IC50 is reported as at most 100 nM. Work on `Cc1cn2nc(-c3cc(F)c4nc(N(C)[C@@H]5CCN[C@@H](C)C5)sc4c3)ccc2n1` [Compound 259, 4-fluoro-N-methyl-6-(2-methylimidazo[1,2-b]pyridazin-6-yl)-N-[(2S,4R)-2-methylpiperidin-4-yl]-1,3-benzothiazol-2-amine] yielded an IC50 of at most 100 nM. With `Cc1cn2cc(-c3cc4sc(N(C)C5CC6CCCC(C5)N6)nc4cn3)ccc2n1` (centres unmarked) [Compound 260, N-(9-azabicyclo[3.3.1]non-3-yl)-N-methyl-6-(2-methylimidazo[1,2-a]pyridin-6-yl)[1,3]thiazolo[4,5-c]pyridin-2-amine] the IC50 was at most 100 nM. `Cc1cn2cc(-c3cc4sc(N(C)C5CC6CCCC(C5)N6)nc4cn3)cc(C)c2n1` (centres unmarked) [Compound 261, N-(9-azabicyclo[3.3.1]non-3-yl)-6-(2,8-dimethylimidazo[1,2-a]pyridin-6-yl)-N-methyl[1,3]thiazolo[4,5-c]pyridin-2-amine] gave an IC50 of at most 100 nM. Work on `CN(c1nc2cnc(-c3ccc4nn(C)cc4c3)cc2s1)C1CC2CCCC(C1)N2` (centres unmarked) [Compound 262, N-(9-azabicyclo[3.3.1]non-3-yl)-N-methyl-6-(2-methyl-2H-indazol-5-yl)[1,3]thiazolo[4,5-c]pyridin-2-amine] yielded an IC50 of at most 100 nM. With `Cc1cc(-c2cc3sc(N(C)C4CC5CCCC(C4)N5)nc3cn2)cc2cn(C)nc12` (centres unmarked) [Compound 263, N-(9-azabicyclo[3.3.1]non-3-yl)-6-(2,7-dimethyl-2H-indazol-5-yl)-N-methyl[1,3]thiazolo[4,5-c]pyridin-2-amine] the IC50 was at most 100 nM. `COc1cc(-c2cc3sc(N(C)C4CC5CCCC(C4)N5)nc3cn2)cc2cn(C)nc12` (centres unmarked) [Compound 264, N-(9-azabicyclo[3.3.1]non-3-yl)-6-(7-methoxy-2-methyl-2H-indazol-5-yl)-N-methyl[1,3]thiazolo[4,5-c]pyridin-2-amine] was tested, and the IC50 was at most 100 nM. Compound `Cc1cn2cc(-c3ncc4nc(N(C)C5CC(C)(C)NC(C)(C)C5)sc4n3)cc2c(C)n1` [Compound 265, 5-(1,3-dimethylpyrrolo[1,2-a]pyrazin-7-yl)-N-methyl-N-(2,2,6,6-tetramethylpiperidin-4-yl)[1,3]thiazolo[5,4-d]pyrimidin-2-amine] has an IC50 of at most 100 nM. `Cc1cn2cc(-c3cc4sc(NC5CC(C)(C)N(C)C(C)(C)C5)nc4cn3)cc(C#N)c2n1` [Compound 266, 2-methyl-6-{2-[(1,2,2,6,6-pentamethylpiperidin-4-yl)amino][1,3]thiazolo[4,5-c]pyridin-6-yl}imidazo[1,2-a]pyridine-8-carbonitrile] gave an IC50 of 100 to 500 nM. In the case of `Cc1cn2cc(-c3cc4sc(NC5CC(C)(C)N(C)C(C)(C)C5)nc4cn3)cc(F)c2n1` [Compound 267, 6-(8-fluoro-2-methylimidazo[1,2-a]pyridin-6-yl)-N-(1,2,2,6,6-pentamethylpiperidin-4-yl)[1,3]thiazolo[4,5-c]pyridin-2-amine], the IC50 is reported as 100 to 500 nM. `CN1C(C)(C)CC(Nc2nc3cnc(-c4cc(C#N)c5nn(C)cc5c4)cc3s2)CC1(C)C` [Compound 268, 2-methyl-5-{2-[(1,2,2,6,6-pentamethylpiperidin-4-yl)amino][1,3]thiazolo[4,5-c]pyridin-6-yl}-2H-indazole-7-carbonitrile] gave an IC50 of 100 to 500 nM. With `CN1C(C)(C)CC(Nc2nc3cnc(-c4cc(F)c5nn(C)cc5c4)cc3s2)CC1(C)C` [Compound 269, 6-(7-fluoro-2-methyl-2H-indazol-5-yl)-N-(1,2,2,6,6-pentamethylpiperidin-4-yl)[1,3]thiazolo[4,5-c]pyridin-2-amine] the IC50 was 100 to 500 nM. For `Cc1cn2cc(-c3cc4sc(N(C)C5CC6CCCC(C5)N6C)nc4cn3)cc(C#N)c2n1` (centres unmarked) [Compound 270, 2-methyl-6-{2-[methyl(9-methyl-9-azabicyclo[3.3.1]non-3-yl)amino][1,3]thiazolo[4,5-c]pyridin-6-yl}imidazo[1,2-a]pyridine-8-carbonitrile], the IC50 was at most 100 nM. Compound `Cc1cn2cc(-c3cc4sc(N(C)C5CC6CCCC(C5)N6C)nc4cn3)cc(F)c2n1` (centres unmarked) [Compound 271, 6-(8-fluoro-2-methylimidazo[1,2-a]pyridin-6-yl)-N-methyl-N-(9-methyl-9-azabicyclo[3.3.1]non-3-yl)[1,3]thiazolo[4,5-c]pyridin-2-amine] has an IC50 of 100 to 500 nM. In the case of `CN(c1nc2cnc(-c3cc(C#N)c4nn(C)cc4c3)cc2s1)C1CC2CCCC(C1)N2C` (centres unmarked) [Compound 272, 2-methyl-5-{2-[methyl(9-methyl-9-azabicyclo[3.3.1]non-3-yl)amino][1,3]thiazolo[4,5-c]pyridin-6-yl}-2H-indazole-7-carbonitrile], the IC50 is reported as 100 to 500 nM. `CN(c1nc2cnc(-c3cc(F)c4nn(C)cc4c3)cc2s1)C1CC2CCCC(C1)N2C` (centres unmarked) [Compound 273, 6-(7-fluoro-2-methyl-2H-indazol-5-yl)-N-methyl-N-(9-methyl-9-azabicyclo[3.3.1]non-3-yl)[1,3]thiazolo[4,5-c]pyridin-2-amine] showed an IC50 of 500 to 1000 nM. In the case of `CN(c1nc2ncc(-c3ccc(-c4cn[nH]c4)cc3O)nc2s1)C1CCNCC1` [Compound 274, 2-{2-[methyl(piperidin-4-yl)amino][1,3]thiazolo[4,5-b]pyrazin-6-yl}-5-(1H-pyrazol-yl)phenol], the IC50 is reported as at most 100 nM. Work on `Cc1nc2c(C#N)cc(-c3ncc4nc(N(C)C5CC(C)(C)NC(C)(C)C5)sc4n3)cc2o1` [Compound 275, 2-methyl-6-{2-[methyl(2,2,6,6-tetramethylpiperidin-4-yl)amino][1,3]thiazolo[5,4-d]pyrimidin-5-yl}-1,3-benzoxazole-4-carbonitrile] yielded an IC50 of at most 100 nM. `Cc1cn2cc(-c3ccc4nc(N(C)C5CC6CCC(C5)N6)sc4n3)cc(C#N)c2n1` (stereo not drawn) [Compound 276, 6-{2-[(3-exo)-8-azabicyclo[3.2.1]oct-3-yl(methyl)amino][1,3]thiazolo[5,4-b]pyridin-5-yl}-2-methylimidazo[1,2-a]pyridine-8-carbonitrile] was tested, and the IC50 was at most 100 nM.
